We go through 2 substances from US12304933B2, “Disease treatment drug based on mesenchymal-stem-cell mobilization” (StemRIM Inc., priority 2018, dated 2025).

The test system of test [1] is psoriasis model mice. Briefly: Auricular thickness in imiquimod-induced psoriasis model mice. Format: in vivo, C57BL/6 mice. The following applies: 5% imiquimod cream on auricular skin once a day for seven days; 5 mg/kg/day peptide into tail vein for seven days; n=4; FIG. 9. The method, then: To induce psoriasis by imiquimod, a cream containing 5% imiquimod (Beseruna cream 5%, Mochida Pharmaceutical Co., Ltd.) was used. In the drawing corresponding to the Example of the present application, imiquimod is referred to as IMQ. In addition, the peptide NP-3 (TFA salt) described in Example 1 was used as a test substance.
C57BL/6 mice (7 weeks old, female, body weight about 20 g) were prepared. To induce psoriasis, a cream containing 5% imiquimod was applied on the auricular skin of the mice at an amount of 25 mg/ear/day (1.25 mg/ear/day imiquimod) once a day for seven days. Moreover, mice without imiquimod application (hereinafter, referred to as “normal mice”) were used as a comparison target.
The psoriasis model mice prepared as described above were divided into a peptide-administered group (n=4) and a control group (n=4). […]
During the test period, the auricle thickness of mice was measured daily using a micrometer (manufactured by Mitutoyo Co., Ltd., Product No. CLM1-15QM), and the size of change from the auricle thickness before the start of imiquimod application (Day 0) was calculated. The degree of skin thickening was evaluated using the size of change as an index.

Test [2] concerns mesenchymal stem cells in peripheral blood. Briefly: Solid-phase culture of peripheral blood after administration of HMGB1 peptide 1-44 (earlier experiments of the inventors). Format: in vivo. From the text: In addition, the colonies obtained as a result of culturing, on a solid phase, peripheral blood after administration of a peptide consisting of amino acid residues 1-44 of the human HMGB1 protein (hereinafter, HMGB1 peptide 1-44), which has an activity of mobilizing mesenchymal stem cells into peripheral blood, have been confirmed to have adherability to solid phase and self-renewal ability, and to be PDGFRα positive. They have also been confirmed to have a gene expression profile characteristic to mesenchymal stem cells, based on the results of clustering the transcriptome analysis data and performing gene ontology analysis.
Furthermore, it has been confirmed that the number of colonies obtained by solid-phase culture is larger in the peripheral blood after administration of HMGB1 peptide 1-44 than in the peripheral blood after administration of physiological saline.

Turning to “NP-3: Chemically synthesized fragment peptide of mouse YBX1 protein, positions 174-203, SEQ ID NO: 37 (SAPEGQAQQRRPYRRRRFPPYYMRRPYARR; listed as Mus musculus)”, in test [1], the “increase in auricular thickness as compared with the control group” value is listed as “suppressed”.

Turning to “HMGB1 peptide 1-44: peptide consisting of amino acid residues 1-44 of the human HMGB1 protein, which has an activity of mobilizing mesenchymal stem cells into peripheral blood (MGKGDPKKPRGKMSSYAFFVQTCREEHKKKHPDASVNFSEFSKK; UniProt P09429 1-44, looked up, fragment)”, the “number of colonies obtained by solid-phase culture of peripheral blood, compared with peripheral blood after administration of physiological saline” value in test [2] was “larger”.
